Experimental data reported in patent publication US10537610B1, “Peptide for inhibition of cancer” (priority 2018, dated 2020).
Non-standard residues stand in square brackets, D forms with d. Residues, ends and D or L forms follow the SMILES beside them.

Assays:
Format in all cases: cell-based, human
[1] = tested on: MCF-10A cells across HMEC-1 monolayer; test: Transmigration (TEM) of MCF-10A cells across the endothelial monolayer
Description: (§1) The peptides were synthesized and purified by LifeTein, LLC (Somerset, N.J., USA) with the purity of not less than 95% using PeptideSyn™ technology that incorporates solid phase fluorenylmethyloxycarbonyl (Fmoc) chemistry. The cells were treated with the peptide P4D for 0, 1, 5, or 24 hours at a concentration of 500 μM. The cells treated with the Scrambled peptide P4D (Scr; 500 μM; 0, 1, 5, or 24 hours incubation time) were used as a negative control. In order to provide the positive control of the junctions tightening for impedance-based measurements of endothelial permeability, the cells were incubated with the potent activator of TJ assembly, forskolin (FSK; BioShop, Burlington, ON, Canada), for 24 hours at a concentration of 10 μM.
HMEC-1 endothelial cells were cultured in fibronectin-coated Transwell units with polycarbonate filter and 8 μm pores (Costar, Corning, N.Y., USA) in 24-well plates for 2 days at 37° C. to form a confluent monolayer. […]
At the end of the transmigration assay, non-migrated cells were gently wiped out from the inner surface of the membrane with cosmetic cotton swab. […] The migrated cells (five randomly chosen fields of each well) were counted using the Cell Counter tool of the ImageJ software. […]

[2] = tested on: breast cancer cells (MCF-7, MDA-MB-231) across HMEC-1 monolayer; test: Transmigration (TEM) of breast cancer cells across the endothelial monolayer
Description: as §1
HMEC-1 endothelial cells were cultured in fibronectin-coated Transwell units with polycarbonate filter and 8 μm pores (Costar, Corning, N.Y., USA) in 24-well plates for 2 days at 37° C. to form a confluent monolayer. Human breast cancer (MCF-7, MDA-MB-231) or non-tumorigenic (MCF-10A) human breast cells were starved overnight and labeled with the green fluorescent marker CellTracker Green CMFDA Dye (Molecular Probes, Eugene, Oreg., USA). An aliquot (1×10^5/well) of fluorescent breast cancer cells in serum-free medium was added in the top of the Transwell chamber, whereas the conditioned medium was used as a chemoattractant in the lower compartment. Non-tumorigenic human breast cell line MCF-10A was used as control. The wells containing the serum-free medium in the lower compartment were used to estimate the background migration. The breast cancer cells were allowed to migrate across the endothelial monolayer for 6 hours in a humidified incubator (temperature of 37° C. and 5% CO2 atmosphere) with or without the previously specified factors or with their combinations.
At the end of the transmigration assay, non-migrated cells were gently wiped out from the inner surface of the membrane with cosmetic cotton swab. The assay was documented at 200× magnification (10× eyepiece and 20× objective) with fluorescent inverted microscope Axio Vert.A1 (Zeiss, Oberkochen, Germany) and high-performance CMOS 2.3-MP AxioCam 702 mono digital camera (Zeiss) controlled by ZEN software, version 2.3 (Zeiss). The migrated cells (five randomly chosen fields of each well) were counted using the Cell Counter tool of the ImageJ software. Cell migration towards serum-free medium was treated as background and subtracted from the corresponding numbers of cells migrated towards conditioned medium.

JAM-A (CD321) = test: Flow cytometry of JAM-A (CD321) on the surface of HMEC-1 cells; conditions: Tβ4 200 nM, TGF-β1 10 ng/ml or TNF-α 10 ng/mL, 24 hours
Text: For the detection of JAM-A surface expression the cells were labeled with FITC anti-human CD321 (F11R) Mouse IgG1 Antibody (BioLegend, San Diego, Calif., USA) or with the FITC Mouse IgG1 Isotype Control Antibody (BioLegend) for the negative control. Labeled cells were washed to remove unbound antibodies, harvested with ice cold EDTA/PBS, fixed with BD CellFix (Becton Dickinson. Franklin Lakes, N.J., USA) and subsequently analyzed by FACS Canto II flow cytometer (Becton Dickinson). Upon excitation at 488 nm with an argon laser the emission of the fluorescence was recorded through selective band pass filter at 517 nm. Data were recorded with DIVA software, version 6.0 (Becton Dickinson) and subsequently analyzed using FCSalyzer software, version 0.9.14-alpha (https://sourceforge.net/projects/fcsalyzer/).

Compound	transmigration of MCF-10A cells across cytokine-treated endothelium ([1]; P4D 500 μM, TNF/IFN-treated HMEC-1)	transmigration of breast cancer cells across cytokine-activated endothelial monolayer ([2]; P4D 500 μM, HMEC-1 preincubated with TNF/IFN)	Tβ4-activated TEM ([2]; P4D 500 μM, HMEC-1 preincubated with Tβ4 200 nM for 24 hours, all tested MECs (MCF-7, MDA-MB-231, MCF-10A))	degree of TEM inhibition, MCF-7 cells compared with other MECs ([2]; P4D 500 μM, inflamed endothelium)	TEM of MCF-10A cells, effect of Tβ4 ([1]; Tβ4 200 nM, 24 hours, in the presence of the Scr peptide)	JAM-A (CD321) level on the cell surface (JAM-A (CD321))	transmigration of MCF-7 and MDA-MB-231 across HMEC-1 monolayer, effect of Tβ4 ([2]; Tβ4 200 nM, 24 hours, vs. CTRL (non-treated) cells)
CC(C)[C@H](NC(=O)[C@H](CO)NC(=O)[C@H](N)CCCCN)C(=O)N[C@H](C(=O)N[C@H](CCCNC(=N)N)C(=O)N[C@@H](CCC(=O)O)C(=O)N[C@@H](CC(=O)O)C(=O)N[C@H](C(=O)NCC(=O)N[C@H](C(=O)N[C@@H](Cc1ccc(O)cc1)C(=O)N[C@H](C(=O)N[C@@H](CS)C(N)=O)[C@@H](C)O)[C@@H](C)O)[C@@H](C)O)[C@@H](C)O [Peptide P4D, NH2-(dK)-SVT-(dR)-EDTGTYTC-CONH2] (H-[dK]SVT[dR]EDTGTYTC-NH2)	markedly inhibited	hindered	abrogated the Tβ4-activated TEM	highest degree of TEM inhibition	–	–	–
Thymosin β4 (SDKPDMAEIEKFDKSKLKKTETQEKNPLPSKETIEQEKQAGES; not fully specified; Thymosin beta-4; UniProt P62328 2-44, looked up) [Tβ4]	–	–	–	–	significantly elevated the TEM of MCF-10A cells	slightly decreased JAM-A level on the membrane of HMEC-1 cells	slightly stimulated
